Laboratory results taken from patent US11096926B2, “(3AR)-1,3A,8-trimethyl-1,2,3,3A,8,8A-hexahydropyrrolo[2,3-b]indol-5-yl phenylcarbamate and methods of treating or preventing neurodegeneration” (priority 2011, dated 2021).
Like-named read-outs stand apart in the source and are kept apart here.

Columns and labels:
APP [1] = experiment: 35S incorporation into newly synthesized APP in SH-SY-5Y cells; format: cell-based; conditions: SH-SY-5Y human neuroblastoma cells; 10 min 35S incorporation; APP mRNA and total protein synthesis not altered
Protocol: FIG. 5A: 10 min ^35S incorporation into APP, in SH-SY-5Y human neuroblastoma cells. FIG. 5B: newly synthesized total protein. FIG. 5C: newly synthesized APP. FIG. 5D: APP mRNA.

APP [2] = format: in vivo, mouse; conditions: trisomy Down Syndrome (Ts65Dn) mice; to control non-DS brain levels
AChE = target: T1, AChE (Mus musculus, UniProt P21836); experiment: Brain AChE levels in Ts65Dn mice; format: in vivo; conditions: 50 mg/kg
T1 construct: from tissue; host or cells: brain of Ts65Dn mice
T1 sequence (P21836 32-614): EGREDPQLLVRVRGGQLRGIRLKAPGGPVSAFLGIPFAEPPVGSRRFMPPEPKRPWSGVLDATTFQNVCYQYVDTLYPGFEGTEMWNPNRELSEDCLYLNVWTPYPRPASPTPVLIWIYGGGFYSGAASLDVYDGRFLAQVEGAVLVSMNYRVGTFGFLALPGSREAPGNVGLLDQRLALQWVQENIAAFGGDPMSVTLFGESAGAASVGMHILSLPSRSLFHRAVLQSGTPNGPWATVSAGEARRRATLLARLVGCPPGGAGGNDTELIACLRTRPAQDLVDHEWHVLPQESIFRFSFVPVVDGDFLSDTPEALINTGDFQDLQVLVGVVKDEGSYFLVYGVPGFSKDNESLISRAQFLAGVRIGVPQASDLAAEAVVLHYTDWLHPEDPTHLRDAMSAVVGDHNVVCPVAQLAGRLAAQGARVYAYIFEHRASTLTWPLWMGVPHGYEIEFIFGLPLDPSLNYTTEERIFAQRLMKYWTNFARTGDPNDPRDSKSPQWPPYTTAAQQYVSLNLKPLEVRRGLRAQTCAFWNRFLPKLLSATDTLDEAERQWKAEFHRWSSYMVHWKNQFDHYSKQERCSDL
Excerpt: (§1) FIG. 17 is a series of graphs illustrating effects of Compound (1) in Ts65Dn mouse model of Down Syndrome.

NGF = experiment: Brain NGF levels in Ts65Dn mice; format: in vivo, mouse
Excerpt: as §1

APP [3] = format: in vivo, mouse; conditions: APP23 transgenic AD mice; 25 mg daily for 14 days; mRNA levels not lowered
Protocol: APP23 transgenic AD mice were treated with 25 mg of Compound (1) daily for 14 days.

APP, Aβ40 and Aβ42 = APP, Aβ40 and Aβ42 levels in mouse brain (Western Blot, ELISA); format: in vivo; conditions: once daily x 21 day
Protocol: FIG. 15 is a series of graphs illustrating the in vivo reduction of APP, Aβ40 and Aβ42 levels in mouse brain by Compound (1). Drug was administered once daily×21 day: APP—Western Blot, Aβ—Specific ELISA for 1-40 and 1-42 forms.

[4] = Human pharmacokinetics in plasma and CSF (proof of mechanism study, MCI patients); format: in vivo; conditions: for half-life: human, po
Protocol: (§2) For a proof of mechanism study of Compound (1), patients suffering from mild cognitive impairment (MCI) were treated with Compound (1) for 10 days. The patients were dosed with 4×60 mg Compound (1) for 10 days orally, using Posiphen® powder filled into gelatin capsules. Cerebrospinal fluid (CSF) and plasma were drawn from the subjects over a 12 hour period on day 0 and day 11.
Pharmacokinetic analysis was performed for Compound W) and selected metabolites: N^1-norposiphen, N^8-norposiphen, and N^1,N^8-norposiphen. Pharmacodynamic analysis was performed for APP protein and other AD associated biomarkers in CSF and plasma: APP, Aβ1-40, Aβ1-42, N-APP, AChEI, BChEI, Tau/p-Tau, NGF, BDNF, and inflammatory factors.
(d) in humans, plasma and CSF were analyzed 0 to 12 hours, after administration of the drug.
The levels of Compound (1) and selected metabolites in human plasma (FIG. 22A) and human CSF (FIG. 22B) were determined. […] This was corroborated by measuring half-life of Posiphen® in brains of mice.

[5] = Binding to brain proteins, rat brain homogenate; format: in vitro ADME
Protocol: (§3) The binding of Compound (t) and metabolites to brain proteins was determined to be ˜96% (rat and human brain homogenate).

[6] = Binding to brain proteins, human brain homogenate; format: in vitro ADME
Protocol: as §3

Tau = Tau levels before and after 10 days treatment in MCI patients; format: in vivo, human; conditions: given for 10 days
Protocol: FIG. 24 is a graph illustrating the comparison of Tau before and after treatment with Compound (1) in healthy volunteers.
as §2

alpha-Syn = conditions: dopaminergic SH-SY5Y cells; quantitative Western blotting, standardized for β-actin; read-out: efficacy on alpha-Syn expression (IC50); cited from earlier work
[7] = Plasma pharmacokinetics of phenserine in men and women; conditions: 15 mg dose on day 35 of study
Excerpt: PT: phenserine; N^8: N^8-desamine phenserine; N^1: N^1-desmethyl phenserine; N^1,N^8: N^1,N^8-desmethyl phenserine.

SMILES	newly synthesized APP (APP [1])	lowering of APP levels in brain (APP [2]) [%]	lowering of brain AChE levels (AChE) [%]	NGF levels in brain (NGF)	APP levels in the brain (APP [3])	APP, Aβ40 and Aβ42 levels in mouse brain (APP, Aβ40 and Aβ42)	half-life ([4]; CSF, read-out: half-life in human CSF (converted)) [h]	half-life ([4]; plasma, read-out: half-life in human plasma (converted)) [h]	half-life in human plasma ([4]; oral, listed as Posiphen) [h]	binding to brain proteins [5] [%]	binding to brain proteins [6] [%]	Tau levels (Tau)	IC50 (alpha-Syn) [µM]	half life (plasma) [7]
CN1CC[C@]2(C)c3cc(OC(=O)Nc4ccccc4)ccc3N(C)C12 (stereo partly drawn) [Compound (1), (3aR)-1,3a,8-trimethyl-1,2,3,3a,8,8a-hexahydropyrrolo[2,3-b]indol-5-yl phenylcarbamate]	reduces newly synthesized APP	30	50	elevated	lowered APP levels	reduction	~12	~5	5	~96	~96	lowers their Tau levels back to the levels found in healthy volunteers	< 5	–
CN1CC[C@@]2(C)c3cc(OC(=O)Nc4ccccc4)ccc3N(C)[C@@H]12 [phenserine]	–	–	–	–	–	–	–	–	–	–	–	–	–	less than one
